Measured values taken from patent US20250388810A1, “Kit for Sustaining Luminescence of Luminescent Substrate and Method for Sustaining Luminescence of Luminescent Substrate” (SHIMADZU CORPORATION, priority 2024, published 2025).
Entries after “also recorded” stand apart in the source; their conditions may differ.

Tests used:
Type in all cases: biochemical
[1] = system: picALuc; assay: Experiment 7: inhibition of luminescence reaction by substrate metabolites with or without NP-40; settings: metabolite 1 μM; for suppression of the decreased ratio in the luminescence value by addition of a surfactant: NP-40 (+) versus NP-40 (−); for luminescence value on addition of substrate metabolite: picALuc 100 nM, nCTZ 8 μM, 60 minutes incubation
Method: CTM, CTO, or CTMD was added to a mixture solution having the composition described below so that a final concentration was 0 M or 1 μM, followed by incubation at room temperature for 60 minutes. The luminescence value was then measured. At this time, as the measurement device, a GloMax (registered trademark) Navigator Microplate Luminometer (manufactured by Promega) was used. The time indicating the maximum luminescence value (time from addition of the substrate) varies greatly depending on each condition. Therefore, in this experiment, the luminescence value immediately after the addition of the substrate was compared, rather than the maximum luminescence value, so that the amount of the substrate consumed due to the luminescence reaction and the amount of the substrate oxidation due to elapsed time were not taken into consideration. FIG. 10A is graphs showing the correlation between the relative light unit (vertical axis) and the presence or absence of the surfactant and the substrate metabolites (horizontal axis). FIG. 10B is graphs showing the relationship between the rate of decrease in the amount of luminescence due to the addition of the substrate metabolites (vertical axis) and the presence or absence of the surfactant (horizontal axis).
NP-40 (final concentration 0% or 0.01%) picALuc (final concentration 100 nM) nCTZ (final concentration 8 μM) […]
Buffer (137 mM NaCl, 9.6 mM KH2PO4, 2.7 mM KCl, pH 7.0, remainder)

[2] = system: picALuc; assay: Experiment 1: luminescence reaction of picALuc and CTZh in the presence of surfactant and ethanol; settings: luminescent enzyme picALuc for example 1 nM, CTZh, EtOH
Method: When a luminescent enzyme and a luminescent substrate were allowed to react in the presence of a surfactant and an alcohol, how the luminescence characteristics of the luminescent substrate change was examined. First, the luminescent enzyme and the surfactant described below were diluted in a buffer (137 mM NaCl, 9.6 mM KH2PO4, 2.7 mM KCl, pH 7.0) to obtain an enzyme solution with different concentrations of the luminescent enzyme and the surfactant.
Also, coelenterazine h (CTZh), which is the luminescent substrate, was dissolved in ethanol (EtOH) so that a final concentration thereof was 2.4 mM, to obtain an ethanol solution of CTZh. […]
Then, 50 μL of the enzyme solution and 50 μL of the substrate solution were mixed. The luminescence value was measured immediately after mixing. […] FIG. 1A is graphs showing a change in luminescence intensity over time. […] FIG. 1B is graphs showing the correlation between the maximum value of the normalized luminescence intensity (vertical axis) and the concentration of the luminescent enzyme and the concentration of the surfactant (horizontal axis). FIG. 1C is graphs showing the correlation between the half-life of the luminescence reaction (horizontal axis) and the concentration of the luminescent enzyme and the concentration of the surfactant (vertical axis). […]

[3] = target: T1, NanoLuc (Oplophorus gracilirostris, UniProt Q9GV45, A31E/A60N/A81I/F95D/I117V/K70R/L54V/L99Q/M102K/N193R/P142E/Q151K/Q38R/Q45L/V71I/Y165I); assay: Experiment 2: luminescence reaction of NanoLuc and CTZh in the presence of surfactant and ethanol; settings: luminescent enzyme NanoLuc for example 10 nM, CTZh, EtOH
T1 construct: purchased Promega
Method: The experiment was performed in the same manner as in Experiment 1 except that NanoLuc (manufactured by Promega) was used as a luminescent enzyme and NP-40 or CHAPS was used as a surfactant. FIG. 3A is graphs showing a change in luminescence intensity over time. […] FIG. 3B is graphs showing the correlation between the maximum value of the normalized luminescence intensity (vertical axis) and the concentration of the luminescent enzyme and the concentration of the surfactant (horizontal axis). FIG. 3C is graphs showing the correlation between the half-life of the luminescence reaction (horizontal axis) and the concentration of the luminescent enzyme and the concentration of the surfactant (vertical axis).

[4] = system: picALuc; assay: Experiment 3: luminescence reaction of picALuc and nCTZ with methanol and NP-40; settings: picALuc 100 nM, nCTZ 8 μM, methanol
Method: The experiment was performed in the same manner as in Experiment 1 except that methanol (MeOH) manufactured by FUJIFILM Wako Pure Chemical Corporation) was used as an alcohol, NP-40 was used as a surfactant, and native coelenterazine (nCTZ, final concentration 8 μM) (manufactured by FUJIFILM Wako Pure Chemical Corporation) was used as a luminescent substrate. At this time, the final concentration of the luminescent enzyme (picALuc) was set to 100 nM. FIG. 4 is a graph showing a change in luminescence intensity over time.

[5] = system: streptavidin-fused picALuc; assay: Experiment 4: simulated detection system, biotinylated BSA detected with streptavidin-fused picALuc
Method: In this experiment, as a simulated detection system, biotinylated bovine serum albumin (BSA) was immobilized on a base of a 96-well plate and detection was performed using streptavidin-fused picALuc (FIG. 6A). Specifically, 100 μL of a biotinylated BSA solution (final concentration 10 μg/mL) was first added to each well. After each well was washed with a washing buffer (PBST (0.1% Tween)), blocking was performed by addition of 200 μL of a blocking buffer (20% Immnoblock (manufactured by KAC Co., ltd.) in PBS) to each well. After each well was washed with a washing buffer again, 100 μL of a streptavidin-fused picALuc solution (final concentration 1 μg/mL, diluted with 5% Immunoblock in PBST) was added to each well. Each well was washed with a washing buffer.
Then, immediately before the luminescent substrate was added, NP-40 was diluted with a buffer (PBS) so that the final concentration was 0.002 to 0.2%, and 100 μL of the resulting diluted solution was added to each well. Next, 100 μL of the substrate solution prepared in the same manner as in Experiment 1 was added to each well. The luminescence value was measured immediately after the substrate solution was added. At this time, as the measurement device, GloMax (registered trademark) Navigator Microplate Luminometer (manufactured by Promega) was used. FIG. 6B is a graph showing a change in luminescence intensity over time. […] FIG. 6C is a graph showing the correlation between the maximum value of the relative light unit (vertical axis) and the concentration of the surfactant (horizontal axis). FIG. 6D is a graph showing the correlation between the integrated value of the relative light unit (vertical axis) and the concentration of the surfactant (horizontal axis). The integrated value is the integrated value obtained for 30 minutes after the addition of the substrate solution.

[6] = system: picALuc; assay: Experiment 8: LC-MS of substrate consumed and substrate metabolites produced in luminescence reaction; settings: NP-40 0.01% versus 0%, picALuc 100 nM, nCTZ 8 μM
Method: By LC-MS analysis of a reaction solution containing picALuc and nCTZ, the effect of a surfactant (NP-40) on the amount of the substrate (nCTZ) consumed and the amount of the substrate metabolites (CTM, CTO, CTMD) produced was examined.
A substrate solution (100 μL) having the following composition was added to an enzyme solution (100 μL) having the following composition, to prepare a reaction solution.
At 0 minutes of the luminescence reaction (before the addition of the substrate solution), 10 minutes after the luminescence reaction, or 60 minutes after the luminescence reaction, 1/1000 (volume ratio) of hydrochloric acid was added to the reaction solution to stop the luminescence reaction, and methanol, which was five times the amount of the reaction solution, was added, followed by centrifugation. Then, the supernatant was collected to remove the luminescent enzyme. After that, each reaction solution was analyzed with an LC-MS device to measure the respective amounts of nCTZ, CTM, CTO, and CTMD (FIG. 11). The measurement conditions at this time are as follows.
It was thought that the amount of nCTZ was greater than the actual amount when NP-40 was added due to ion effects. Therefore, it was normalized to the amount of nCTZ when NP-40 was not added. Furthermore, the fact that CTM, CTO, and CTMD were already present in the reaction solution at 0 minutes of luminescence reaction is thought to be caused by converting nCTZ to these compounds during storage of nCTZ. Therefore, the amount of nCTZ consumed and the respective amounts of CTM, CTO, and CTMD produced were calculated by subtracting the amount of each component that was present before the reaction (FIG. 12).

T1 sequence (Q9GV45 other isoform, or with tags, fused parts or gaps with the stated changes): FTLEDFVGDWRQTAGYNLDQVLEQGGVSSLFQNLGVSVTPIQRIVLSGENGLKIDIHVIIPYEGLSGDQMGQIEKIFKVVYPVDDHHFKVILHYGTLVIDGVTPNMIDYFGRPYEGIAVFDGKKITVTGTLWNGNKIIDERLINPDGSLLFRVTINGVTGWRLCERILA

Row | Compound | suppression of the decreased ratio in the luminescence value by addition of a surfactant [1] | luminescence value on addition of substrate metabolite ([1]; NP-40 (−)) | maximum value of the normalized luminescence intensity [2] | maximum value of the normalized luminescence intensity [3] | luminescence value on addition of substrate metabolite ([1]; NP-40 (+) 0.01%) | also measured
1 | O=C(Cc1ccc(O)cc1)Nc1ncc(-c2ccc(O)cc2)nc1Cc1ccccc1 [CTMD, coelenteramide] | a tendency to significantly suppress the decreased ratio | the luminescence value significantly decreased | – | – | – | –
2 | poly(oxyethylene)=octylphenyl ether [NP-40] | – | – | enhancement of the luminescence intensity was also observed | enhancement of the luminescence intensity was also observed | – | change in luminescence intensity over time [4]: sustained luminescence and enhancement of the luminescence intensity were observed; maximum value of the relative light unit versus when NP-40 was not added ([5]; 0.1% NP-40): 2.2 times; integrated value of the relative light unit versus when NP-40 was not added ([5]; 0.1% NP-40, integrated for 30 minutes after addition of substrate solution): 3.2 times; maximum value of the relative light unit and sustained luminescence ([5]; NP-40 0.002 to 0.2%): an increase in the maximum value of the relative light unit and the sustained luminescence were observed dependently on the concentration; amount of CTM produced when the surfactant was added [6]: decreased; amount of CTMD produced when the surfactant was added [6]: increased; amount of CTO produced when the surfactant was added [6]: remained almost unchanged; amount of nCTZ consumed when the surfactant was added [6]: increased
3 | Nc1ncc(-c2ccc(O)cc2)nc1Cc1ccccc1 [CTM, coelenteramine] | no significant suppression was observed | the luminescence value significantly decreased | – | – | a decrease in the luminescence value was clearly observed; also recorded: a decrease in the luminescence value was small | –
4 | CC(CCC(=O)NCCC[N+](C)(C)CCCS(=O)(=O)O)C1CCC2C3C(O)CC4CC(O)CCC4(C)C3CC(O)C12C (centres unmarked) [CHAPS] | – | – | enhancement of the luminescence intensity was also observed | enhancement of the luminescence intensity was also observed | – | –
5 | O=c1[nH]cc(-c2ccc(O)cc2)nc1Cc1ccccc1 [CTO, 3-benzyl-5-(4-hydroxyphenyl) pyrazin-2 (1H)-one] | a tendency to significantly suppress the decreased ratio | a decrease in the luminescence value was observed | – | – | a decrease in the luminescence value was small | –
